The record followed here is PubChem BioAssay (NCI).

Structures are written as SMILES. “And” between values parts separate entries of the source, which are not always exact repeats. Equal entries are not always repeated.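 Grown in 96-well plates, cells were treated for 48 hours with each compound at five concentrations. Insufficient inhibition: endpoint recorded as highest concentration tested. GI50 = concentration required for 50% inhibition of growth. The concentration for full growth arrest is given as TGI.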

One experiment deals with SNB-75 CNS. Kind of experiment: inhibition of tumour cell growth, NCI panel, 48 h.
Take `CCn1c(=O)c2c(=O)c3c4c(oc3oc2c2ccccc21)C(=O)c1ccccc1C4=O`: the GI50 is above 20.8 µM and the TGI is above 53.3 µM.

For `Cc1nc(-[n+]2nc(-c3ccncc3)nn2-c2ccccc2)sc1C`, the TGI is above 100 µM.

Regarding `COc1cc2c(c(OC)c1OC)-c1ncc3cc4c(cc3c1C2)OCO4`, the GI50 is 79.4 µM and the TGI is above 100 µM.

`CC1=C(C(=O)Nc2ccc(Cl)c(Cl)c2)C(c2cccc(Oc3ccccc3)c2)NC(=O)N1` (centres undefined): the GI50 is 15.9 µM and the TGI was above 50 µM.

In turn, `CC1COC(C)(C)P(=O)(c2ccccc2)C1` (centres undefined) came in with a TGI above 100 µM.

For the molecule `Cc1ccc(S(=O)(=O)c2ccc(N)cc2)cc1`, the TGI is above 100 µM.

`COc1ccc(O)c(C(=O)c2ccc(C(=O)N[C@H]3CCCNC[C@@H]3NC(=O)c3ccncc3)cc2)c1F`: the GI50 is 0.0135 µM.

`COc1ccc(-n2c(C)cc(-c3ccccc3)c2C)cc1`: the GI50 is 3.37 µM and the TGI is above 100 µM.

Take `CCOP(=O)(OCC)OC1C=CC2CCC1C2` (centres undefined): the TGI is above 100 µM.

`CCOc1ccncc1[N+](=O)[O-]` came in with a TGI above 100 µM.

As to `COc1c[c]([Hg][O]C(C)=O)c(OC)c(NC(=O)CC(C)=O)[c]1[Hg][O]C(C)=O`, the GI50 is 14 µM and the TGI worked out at 28 µM.

Consider `O=C(Nc1ccc(F)cc1)c1cc(S(=O)(=O)Nc2nc3ccccc3o2)c(SCc2ccccc2)cc1Cl`, for which the GI50 was 24.3 µM and the TGI worked out at 56.9 µM.

As for `O=C(/C=C/c1ccccc1Cl)NC1C=Nc2ccc([N+](=O)[O-])cc2NC1` (centres undefined), the TGI was above 100 µM.

`CCCO/S(=N\S(=O)(=O)c1ccccc1)c1ccccc1[N+](=O)[O-]` (centres undefined) came in with a TGI above 100 µM.

`Cc1ccc(C)c(N=C2NC(=O)C(CC(=O)Nc3ccc(Cl)cc3Cl)S2)c1` (centres undefined) displayed a TGI above 100 µM.

Take `O=C1NC(=O)C(c2cccc([N+](=O)[O-])c2)=C1Nc1cc(Cl)c(O)c(Cl)c1`: the GI50 was 10.7 µM and the TGI was above 25 µM.

For the molecule `COC(=O)[C@@H](C)C[C@H](Cc1ccccc1)NC(=O)c1csc([C@@H](C[C@H](C(C)C)N(C)C(=O)[C@@H](NC(=O)[C@H]2CCCCN2C)C2CCCCC2)OC(C)=O)n1`, the GI50 was 0.00103 µM and 0.0025 µM; the TGI stood at 22.2 µM.

Turning to `COc1ccc(CCNC(=O)c2ccc(NC3=C(Cl)C(=O)N(Cc4ccccc4)C3=O)cc2)cc1OC`, the GI50 was 38.4 µM and the TGI was above 100 µM.

Molecule `Cc1nc([N+](=O)[O-])cn1CC(=N)N` had a TGI above 100 µM.

In turn, `O=CN1CCN(CC(O)CN2CCCCC2)CC1` (centres undefined) showed a TGI above 100 µM.

Consider `O=Cc1ccc2c(c1-c1c(C=O)ccc3c1OCO3)OCO2`, for which the TGI is above 100 µM.

Consider `CC(=O)O[C@H]1CCC2[C@@H]3CCC4Nc5[nH]ncc5C[C@]4(C)C3CC[C@@]21C` (some centres undefined), for which the TGI is above 100 µM.

The subject of another experiment is HT29 colon. Kind of experiment: inhibition of tumour cell growth, NCI panel, 48 h.
The molecule `Cc1nc(-[n+]2nc(-c3ccncc3)nn2-c2ccccc2)sc1C` gave a TGI above 100 µM.

Molecule `CC1COC(C)(C)P(=O)(c2ccccc2)C1` (centres undefined) came in with a TGI above 100 µM.

`Cc1ccc(S(=O)(=O)c2ccc(N)cc2)cc1` had a TGI above 100 µM.

On to `COc1ccc(O)c(C(=O)c2ccc(C(=O)N[C@H]3CCCNC[C@@H]3NC(=O)c3ccncc3)cc2)c1F`, for which the GI50 is 16.3 µM and the TGI is above 25 µM.

As for `COc1ccc(-n2c(C)cc(-c3ccccc3)c2C)cc1`, the GI50 was 1.89 µM and the TGI amounted to 7.23 µM.

Take `CCOP(=O)(OCC)OC1C=CC2CCC1C2` (centres undefined): the TGI was above 100 µM.

As to `CCOc1ccncc1[N+](=O)[O-]`, the TGI is above 100 µM.

As to `COc1c[c]([Hg][O]C(C)=O)c(OC)c(NC(=O)CC(C)=O)[c]1[Hg][O]C(C)=O`, the GI50 is 4.21 µM and the TGI worked out at 19.6 µM.

Regarding `O=C(Nc1ccc(F)cc1)c1cc(S(=O)(=O)Nc2nc3ccccc3o2)c(SCc2ccccc2)cc1Cl`, the GI50 is 27 µM and the TGI is above 100 µM.

Molecule `CCCO/S(=N\S(=O)(=O)c1ccccc1)c1ccccc1[N+](=O)[O-]` (centres undefined) returned a TGI above 100 µM.

For the molecule `Cc1ccc(C)c(N=C2NC(=O)C(CC(=O)Nc3ccc(Cl)cc3Cl)S2)c1` (centres undefined), the TGI is above 100 µM.

For `O=C1NC(=O)C(c2cccc([N+](=O)[O-])c2)=C1Nc1cc(Cl)c(O)c(Cl)c1`, the GI50 was above 25 µM and the TGI was above 25 µM.

As to `COC(=O)[C@@H](C)C[C@H](Cc1ccccc1)NC(=O)c1csc([C@@H](C[C@H](C(C)C)N(C)C(=O)[C@@H](NC(=O)[C@H]2CCCCN2C)C2CCCCC2)OC(C)=O)n1`, the GI50 was 0.000314 µM and 0.0025 µM; the TGI was determined as 4.95 µM.

With `NC(=O)OCCn1cc(-c2nc(-c3c[nH]c4ncccc34)cs2)c2ccccc21`, the GI50 was 1.77 µM and the TGI came out at 8.55 µM.

Regarding `COc1ccc(CCNC(=O)c2ccc(NC3=C(Cl)C(=O)N(Cc4ccccc4)C3=O)cc2)cc1OC`, the GI50 was 7.88 µM and the TGI is above 100 µM.

In turn, `Cc1nc([N+](=O)[O-])cn1CC(=N)N` returned a TGI above 100 µM.

As to `O=CN1CCN(CC(O)CN2CCCCC2)CC1` (centres undefined), the TGI is above 100 µM.

As to `O=Cc1ccc2c(c1-c1c(C=O)ccc3c1OCO3)OCO2`, the TGI is above 100 µM.

For the molecule `CC(=O)O[C@H]1CCC2[C@@H]3CCC4Nc5[nH]ncc5C[C@]4(C)C3CC[C@@]21C` (some centres undefined), the TGI is above 100 µM.

The next experiment deals with HCT-15 colon. Kind of experiment: inhibition of tumour cell growth, NCI panel, 48 h.
Turning to `CCn1c(=O)c2c(=O)c3c4c(oc3oc2c2ccccc21)C(=O)c1ccccc1C4=O`, the GI50 was above 100 µM and the TGI was above 100 µM.

`Cc1nc(-[n+]2nc(-c3ccncc3)nn2-c2ccccc2)sc1C`: the TGI was above 100 µM.

For `COc1cc2c(c(OC)c1OC)-c1ncc3cc4c(cc3c1C2)OCO4`, the GI50 was 10.8 µM and the TGI was above 100 µM.

As for `CC1=C(C(=O)Nc2ccc(Cl)c(Cl)c2)C(c2cccc(Oc3ccccc3)c2)NC(=O)N1` (centres undefined), the GI50 was 6.61 µM and the TGI was found to be 48.2 µM.

In the case of `CC1COC(C)(C)P(=O)(c2ccccc2)C1` (centres undefined), the TGI is above 100 µM.

`Cc1ccc(S(=O)(=O)c2ccc(N)cc2)cc1` had a TGI above 100 µM.

In the case of `COc1ccc(O)c(C(=O)c2ccc(C(=O)N[C@H]3CCCNC[C@@H]3NC(=O)c3ccncc3)cc2)c1F`, the GI50 is above 25 µM and the TGI is above 25 µM.
